Results taken from patent EP0252983B1, “SALTS OF N-(VINYLOXIETHYL)DITHIOCARBAMIC ACID, METHOD OF OBTAINING THEREOF AND […] ON THEM” (priority 1985, dated 1987).
Read-outs that look alike come from different tables or passages of the source.

Assays:
Larven von Fichtenböcken = test: Insecticidal activity, topical application to larvae; assay type: in vivo, Fichtenböcke; details: 10%ige Lösung
Excerpt: Die hohe insektizide Aktivität von Kalium-N-(vinyloxyathyl)dithiocarbamat und Zink-bis-(N-vinyloxyathyl- dithiocarbamat) wurde in Versuchen an Larven von Fichtenböcken nachgewiesen. Geprüft wurden die 10%igen wäßrigen (oder alkoholischen) Lösungen, welche auf die Kopfbrust von Larven aufgebracht wurden. In Versuchen standen je 20 Larven zur Verfügung. Die Versuche wurden dreimal wiederholt. Die Mortalität wurde nach 1, 24 und 48 Stunden ermittelt. Die insektizide Aktivität der erfindungsgemäßen Stoffe ist bedeutend höher als die von Chlorophos.
Die Prüfungen auf insektizide Aktivität werden an Larven von Fichtenböcken durchgeführt. Geprüft werden eine 10%ige wäßrige Lösung von Kalium-N-(vinyloxyäthyl)dithiocarbamat und eine 10%ige alkoholische Lösung von Zink-bis-N-(vinyloxyathyldithiocarbamat). In jedem Versuch stehen je 20 Larven zur Verfügung. Die Mortalität wird nach 1, 24 und 48 Stunden ermittelt. Die zu prüfenden Lösungen werden auf die Kopfbrust von Larven aufgebracht.

Psoroptes cuniculi = test: Acaricidal activity on isolated mites; assay type: in vivo
Experimental: Die akarizide Aktivität der Stoffe wird an isolierten Milben Psoroptes cuniculi als Erreger der Psoroptesräude bei Kaninchen geprüft. Von frischen Verkrustungen von Kaninchen mit Psoroptesräude, werden zu diesem Zweck 50 Milbenexemplare (Larven, Nymphen, Imago) gewählt und in Petri-Schalen auf ein Filterpapierblatt übertragen. Dann bringt man auf Milben und die ganze Blattoberfläche 1,5 ml zu prüfende wäßrige Stofflösung in destilliertem Wasser auf. Die Schale wird mit Deckel verschlossen und in einen Thermostat bei 30 °C und Feuchtegehalt von 90 % angeordnet. Der Wirkstoff wird als wäßrige Lösung mit einer zwischen 0,0039 und 4 % liegenden Konzentration genommen. Als Vergleichsmuster dient gleichzeitig eine wäßrige Lösung von Chlorophos. Milben werden im Kontrollversuch (Kontrolle auf Lebensfähigkeit)mit 1,5 ml physiologischer Lösung behandelt und in einen anderen Thermostat unter gleichen Temperatur- und Feuchtigkeitsbedingungen aufgestellt.
Nach 1, 2, 4, 6 Stunden und alle 24 Stunden betrachtet man die Milben im Mikroskop und zählt die toten Milben. Aufgrund der Milbenvernichtung durch einen 24-stündigen Kontakt mit dem Wirkstoff ermittelt man die LK-50 Werte. Die Versuche werden 5mal wiederholt. Arithmetische Mittelwerte gibt Tabelle 14 an.

Verticillium dahliae [1] = test: Soil fungicide test (fungal discs in treated soil); assay type: cell-based; design: key: Das Vorhandensein (+); das Fehlen (-) des wachsenden Myzels um die Scheibe herum; details: 160 mg/kg Boden
Experimental: (§1) Eine 50 g schwere Bodenprobe bringt man in ein Glasgefäß ein, sterilisiert innerhalb von 2 Stunden unter einem Druck von 2 atm, gibt dann dem Boden das Präparat als wäßrige Lösung ausgehend von 160 mg/kg zu, wonach in den Boden Scheiben mit Kulturen folgender Pilze Fusarium oxysporum, Verticillium dahliae, Rhizoctonia solani, Pythium ultimum untergebracht werden.
(§2) Nach 24 und 48 Stunden werden die Scheiben in fließendem Wasser, dann in sterilem Wasser gewaschen, auf sterilem Filterpapier getrocknet und auf eine reine Agarplatte gelegt. Das Vorhandensein (+) oder das Fehlen (-) des wachsenden Myzels um die Scheibe herum wies auf die Wirksamkeit des Präparats. Als Vergleichsmuster diente dabei Karbathion. Die Prüfergebnisse sind in der Tabelle 5 dargestellt.

Pythium ultimum = test: Soil fungicide test (fungal discs in treated soil); assay type: cell-based; design: key: Das Vorhandensein (+); das Fehlen (-) des wachsenden Myzels um die Scheibe herum; details: 160 mg/kg Boden
Experimental: as §1, §2

Rhizoctonia solani [2] = test: Soil fungicide test (fungal discs in treated soil); assay type: cell-based; design: key: Das Vorhandensein (+); das Fehlen (-) des wachsenden Myzels um die Scheibe herum; details: 160 mg/kg Boden
Experimental: as §1, §2

Fusarium oxysporum = test: Soil fungicide test (fungal discs in treated soil); assay type: cell-based; design: key: Das Vorhandensein (+); das Fehlen (-) des wachsenden Myzels um die Scheibe herum; details: 160 mg/kg Boden
Experimental: as §1, §2

Wurzelfäule von Gurken = test: Cucumber root rot test in treated non-sterile soil; assay type: in vivo; details: 200 kg/ha Wirkstoff
Excerpt: Man nimmt 100 g unsterilen Boden, enthaltend 1 Teil Humus, 1 Teil Rasenboden, 1 Teil Sand, gibt darin ein Präparat, das Zink-bis-(N-vinyloxyäthyldithiocarbamat) ausgehend von 200 kg/ha Wirkstoff enthält.
Das Präparat wird wie folgt hergestellt: Einer gesättigten Lösung des genannten Salzes in Azeton gibt man einige Tropfen Emulgiermittel (hydroxyäthylierte Alkylphenole) zu und verdünnt mit Wasser. Innerhalb von 7 bis 8 Tagen begießt man dann bodenhaltige Gefäße mit Wasser, bis der Boden in einen Zustand gebracht wird, der 60% der vollen Wasseraufnahmekapazität des Feldes beträgt. Nach dieser Zeit erfolgt die Aussaat von Gurkensamen, eingequollen im voraus in einer 0,1%igen KMn04-Lösung innerhalb von 2 Stunden. In jedes Gefäß werden je 10 Samen auf eine Tiefe von 1 bis 1,5 cm gesät. Nach 7 bis 9 Tagen berücksichtigt man die Keimungsfähigkeit von Samen, dann bestimmt man nach 3 Tagen den Befallumfang von Pflanzen durch Wurzelfäule, hervorgerufen durch einen Erregerkomplex. Die Versuche werden viermal wiederholt, als Vergleichsmuster dient Milon. Die Prüfergebnisse zeigt Tabelle 9.

Aspergillus niger = test: Mycelial growth inhibition on agar (contact activity); assay type: cell-based
Penicillium funiculosum = test: as above; assay type: cell-based; details: Talaromyces funiculosus, 120 h, Wirkstoffkonzentration 0,003 %
Experimental: (§3) Die Prüfungen werden nach dem Verfahren zur Ermittlung der Kontaktaktivität durchgeführt. Man verwendet das in Wasser gelöste Kalium-N-(vinyloxyäthyl)dithiocarbamat, führt es in ein Nährmedium ein und vergießt auf Petri-Schalen. Nach 24 Stunden wird mit Pilzmyzelium nach einem Stichverfahren geimpft. Dann temperiert man die Schalen innerhalb von 5 Tagen bei einer zwischen 24 und 26 °C liegenden Temperatur und mißt den Durchmesser von Pilzkolonien, ermittelt den Prozentsatz der Hemmung des Myzelwachstums (S) ausgehend von Angaben am 5. Tag nach der Abbott-Formel [drawing 13] worin dc für den Durchmesser der Pilzkolonien, de für den Durchmesser von Pilzkolonien in der Schale stehen, wo ein die zu prüfenden Stoffe enthaltendes Medium vorhanden ist. Dieses Verfahren zur Ermittlung der mikrobiologischen Aktivität ist in anderen Beispielen verwendet.

Stereum hirsutum = test: as above; assay type: cell-based; details: Stereum hirsutum, 120 h, Wirkstoffkonzentration 0,003 %
Experimental: as §3

Paecilomyces varioti = test: as above; assay type: cell-based; details: Paecilomyces, 120 h, Wirkstoffkonzentration 0,003 %
Experimental: as §3

Chaetomium globosum = test: as above; assay type: cell-based; details: Chaetomium globosum, 120 h; Wirkstoffkonzentration 0,003 %; Tabelle 3; read-out: Mycelhemmung, in %
Experimental: as §3

Verticillium dahliae [3] = test: as above; assay type: cell-based; details: 120 h, Kartoffel-Glukose-Nährmedium, read-out: Myzelhemmung in %
Experimental: as §3
(§4) Tabelle 2 zeigt die Angaben für die fungizide Aktivität von Kalium-N-(vinyloxyäthyl)dithiocarbamat und bekannten wirksamen Fungiziden Poly arbazin und TMTD. Der zu prüfende Stoff wurde im Laufe der Versuche in Wasser aufgelöst, und die Kulturen wurden auf einem Kartoffel-Glukose-Nährmedium gezüchtet.

Fusarium sambucinum = test: as above; assay type: cell-based
Experimental: as §3, §4

Fusarium moniliforme = test: as above; assay type: cell-based
Experimental: as §3, §4

Venturia inaegualis = test: as above; assay type: cell-based; details: 120 h, Kartoffel-Glukose-Nährmedium, read-out: Myzelhemmung in %
Experimental: as §3, §4

Botrytis cinerea = test: as above; assay type: cell-based; details: 120 h, Kartoffel-Glukose-Nährmedium, read-out: Myzelhemmung in %
Experimental: as §3, §4

Rhizoctonia solani [4] = test: as above; assay type: cell-based; details: Rhizoctonia solani, 120 h; Wirkstoffkonzentration 0,003 %; Würzeagar; Tabelle 7; read-out: Myzelhemmung in %
Experimental: as §3
Die fungizide Aktivität von Zink-bis-(N-vinyloxyäthyldithiocarbamat) gegen reine Kulturen von Pilzen Fusarium moniliforme, Fusarium sambucinum, Aspergillus niger, Rhizoctonia solani, Cladosporium resinae, Cladosporium cladosporioides, Acremonium cowum, Acremonium charticola, Penicillium chrysogenum, Penicillium charlesii Smith, Penicillium funiculosum, Geotrichum candidum Link, Walrotiela subiculesa, Oidium sp., Paecilomyces varioti, Stereum hirsutum wird gemäß Beispiel 8 untersucht.
(§5) Als Nährmedium dient Würzeagar.

Sphaeropsis malorum = test: as above; assay type: cell-based; details: 120 h; Wirkstoffkonzentration 0,003 %; Würzeagar; Tabelle 7; read-out: Myzelhemmung in %
Experimental: as §3, §5

[5] = Würzeagar, Tabelle 8, read-out: Myzelhemmung in %
[6] = Tabelle 3, read-out: Mycelhemmung, in %
[7] = Wirkstoffkonzentration 0,003 %, Würzeagar, Tabelle 7

COP(=O)(OC)C(O)C(Cl)(Cl)Cl (stereo not drawn) [Chlorophos, O,O-Dimethyl-(1-oxy-2,2,2-trichloräthyl)phosphonat, reference compound]
48 Stunden: Vernichtung von 100 % der Milben nach Stunden (Psoroptes cuniculi; Konzentration 0,5 bis 1,0 %)
57%: Mortalität von Larven der Fichtenböcke (Larven von Fichtenböcken; Wirkungsdauer 48 Stunden)
72 Stunden: Vernichtung von 100 % der Milben nach Stunden (Psoroptes cuniculi; Konzentration 0,25 %)
0%: Mortalität von Larven der Fichtenböcke (Larven von Fichtenböcken; Wirkungsdauer 1 Stunde)
20%: Mortalität von Larven der Fichtenböcke (Larven von Fichtenböcken; Wirkungsdauer 24 Stunden)
0,8%: LK-50 % (Psoroptes cuniculi; 24-stündiger Kontakt mit dem Wirkstoff)

CNC(=S)[S-].[Na+] [Karbathion, reference compound]
-: wachsendes Myzel um die Scheibe (Verticillium dahliae [1]; Haltedauer 24 Stunden) | wachsendes Myzel um die Scheibe (Verticillium dahliae [1]; Haltedauer 48 Stunden) | wachsendes Myzel um die Scheibe (Pythium ultimum; Haltedauer 24 Stunden) | wachsendes Myzel um die Scheibe (Pythium ultimum; Haltedauer 48 Stunden) | wachsendes Myzel um die Scheibe (Rhizoctonia solani [2]; Haltedauer 24 Stunden) | wachsendes Myzel um die Scheibe (Rhizoctonia solani [2]; Haltedauer 48 Stunden) | wachsendes Myzel um die Scheibe (Fusarium oxysporum; Haltedauer 24 Stunden) | wachsendes Myzel um die Scheibe (Fusarium oxysporum; Haltedauer 48 Stunden)

CN1CSC(=S)N(C)C1 [Milon, 3,5-Dimethyltetrahydro-1,3,5-thiadizin-1-thion-2, reference compound]
70,3%: Keimungshäufigkeit in % (Wurzelfäule von Gurken; Gurkensamen)
0%: Entwicklung von Krankheiten in % (Wurzelfäule von Gurken; Wurzelfäule von Gurken)

Oc1c(Cl)c(Cl)c(Cl)c(Cl)c1Cl [Pentachlorphenol, reference compound]
100%: inhibition of growth at 0.003 % (Aspergillus niger; Aspergillus niger, 120 h, Wirkstoffkonzentration 0,003 %, Würzeagar, Tabelle 8, read-out: Myzelhemmung in %) | inhibition of growth at 0.003 % (Penicillium funiculosum; [5]) | inhibition of growth at 0.003 % (Stereum hirsutum; [5]) | inhibition of growth at 0.003 % (Paecilomyces varioti; [5])

O=C(Nc1ccccc1)c1ccccc1O [Salizylanilid, reference compound]
100%: inhibition of growth at 0.003 % (Aspergillus niger; Aspergillus niger, 120 h, Wirkstoffkonzentration 0,003 %, Tabelle 3, read-out: Mycelhemmung, in %) | inhibition of growth at 0.003 % (Penicillium funiculosum; [6]) | inhibition of growth at 0.003 % (Stereum hirsutum; [6]) | inhibition of growth at 0.003 % (Chaetomium globosum) | inhibition of growth at 0.003 % (Paecilomyces varioti; [6])

CN(C)C(=S)SSC(=S)N(C)C [TMTD, Tetramethylthiuramdisulfid, reference compound]
100%: inhibition of growth at 0.01 % (Verticillium dahliae [3]; Wirkstoffkonzentration 0,01 %) | inhibition of growth at 0.003 % (Verticillium dahliae [3]; Wirkstoffkonzentration 0,003 %) | inhibition of growth at 0.01 % (Fusarium sambucinum; Fusarium sambucinum, 120 h, Wirkstoffkonzentration 0,01 %, Kartoffel-Glukose-Nährmedium, read-out: Myzelhemmung in %) | inhibition of growth at 0.003 % (Fusarium sambucinum; Fusarium sambucinum, 120 h, Wirkstoffkonzentration 0,003 %, Kartoffel-Glukose-Nährmedium, read-out: Myzelhemmung in %) | Myzelhemmung in % (Fusarium sambucinum; [7]) | inhibition of growth at 0.01 % (Fusarium moniliforme; Fusarium verticillioides, 120 h, Wirkstoffkonzentration 0,01 %, Kartoffel-Glukose-Nährmedium, read-out: Myzelhemmung in %) | inhibition of growth at 0.003 % (Fusarium moniliforme; Fusarium verticillioides, 120 h, Wirkstoffkonzentration 0,003 %, Kartoffel-Glukose-Nährmedium, read-out: Myzelhemmung in %) | Myzelhemmung in % (Fusarium moniliforme; [7]) | inhibition of growth at 0.01 % (Venturia inaegualis; Wirkstoffkonzentration 0,01 %) | inhibition of growth at 0.003 % (Venturia inaegualis; Wirkstoffkonzentration 0,003 %) | inhibition of growth at 0.01 % (Botrytis cinerea; Wirkstoffkonzentration 0,01 %) | inhibition of growth at 0.003 % (Botrytis cinerea; Wirkstoffkonzentration 0,003 %) | inhibition of growth at 0.01 % (Aspergillus niger; Aspergillus niger, 120 h, Wirkstoffkonzentration 0,01 %, Kartoffel-Glukose-Nährmedium, read-out: Myzelhemmung in %) | inhibition of growth at 0.003 % (Aspergillus niger; Aspergillus niger, 120 h, Wirkstoffkonzentration 0,003 %, Kartoffel-Glukose-Nährmedium, read-out: Myzelhemmung in %) | Myzelhemmung in % (Aspergillus niger; [7]) | inhibition of growth at 0.003 % (Rhizoctonia solani [4]) | inhibition of growth at 0.003 % (Sphaeropsis malorum)
